The values that follow come from patent US20040204486A1, “Anandamide and structurally related lipids as vanilloid receptor modulators” (priority 2000, published 2004).

The target of assay [1] is cannabinoid CB1 receptors (Homo sapiens, UniProt P21554). The note with it: cited from earlier work.
The test system of another assay is rat hepatic artery. The experiment in a line: Recording of tension: relaxation of isolated rat hepatic artery contracted with phenylephrine.

Chain of cannabinoid CB1 receptors (P21554 whole entry): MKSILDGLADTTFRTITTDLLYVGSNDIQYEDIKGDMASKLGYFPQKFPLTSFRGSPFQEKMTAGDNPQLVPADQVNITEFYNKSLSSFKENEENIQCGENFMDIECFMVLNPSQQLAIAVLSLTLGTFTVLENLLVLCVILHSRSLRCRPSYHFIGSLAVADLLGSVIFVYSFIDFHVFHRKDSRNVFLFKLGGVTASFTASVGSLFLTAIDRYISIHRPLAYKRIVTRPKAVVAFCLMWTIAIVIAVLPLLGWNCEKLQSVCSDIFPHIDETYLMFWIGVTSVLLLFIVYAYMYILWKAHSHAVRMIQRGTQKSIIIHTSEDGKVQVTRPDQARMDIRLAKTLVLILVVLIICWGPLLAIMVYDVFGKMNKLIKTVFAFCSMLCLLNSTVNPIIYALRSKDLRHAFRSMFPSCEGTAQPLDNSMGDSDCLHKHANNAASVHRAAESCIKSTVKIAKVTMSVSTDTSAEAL

As a reminder, the Ki is the dissociation constant of the complex between target and ligand, obtained from inhibition or displacement. What is called Emax is the size of the effect at its maximum, as opposed to the concentration needed. With `CCCCCC=CCC=CCC=CCC=CCCCC(=O)Nc1ccc(O)cc1` [AM404, N-(4-hydroxyphenyl)-5,8,11,14-eicosatetraenamide], the Ki in assay [1] is 1.76 µM. The “vasodilator potency compared to anandamide” value in the assay on rat hepatic artery is roughly 10 times. Also, in the assay with rat hepatic artery (Rattus norvegicus, control (agonist alone)), the maximal effect (Emax) was 97 ± 2%. Further, in the assay on rat hepatic artery (Rattus norvegicus, control (agonist alone), read-out: pEC50 of relaxation (converted)), the EC50 was 0.0398 µM. Besides, the “effect on anandamide-induced relaxation” value in the assay on rat hepatic artery (capsaicin 10 μM pre-treatment, 8-37 CGRP 2 μM, capsazepine 3 μM) is “inhibited this response”. Also, the values for the pEC50 of relaxation with rat hepatic artery (control (agonist alone)) and in the assay with rat hepatic artery (in presence of capsazepine (3 μM)) were 7.3±0.2 and 6.4±0.2, respectively.
